Data taken from patent US7265096B2 (XenoPort, Inc., priority 2002, dated 2007).

Tests used:
[1] = Pharmacokinetics and intestinal exposure to gemcitabine after oral dosing in mice; type: in vivo; settings: mice, oral, 20 mg-eq. gemcitabine/kg
Experimental: Blood samples (0.5 mL) were obtained by cardiac puncture from 4 animals at each time point (1, 5, 10, 15, 30, 45 minutes and 1, 2, 4, 6 and 24 hr post-dosing). Samples were immediately transferred to tubes containing 10 μL of tetrahydrouridine (50 μg/mL in 50% methanol/water) to prevent further deamination and aliquots (100 μL) were quenched with a solution of 1% w/w formic acid in acetonitrile (300 μL). Quenched blood samples were stored at −80° C. until analyzed. Following collection of blood samples, the small intestine of each animal was removed, rinsed with saline, scraped to remove the mucosal layer, and the mucosal tissue was transferred to a pre-weighed vial containing 10 μL of tetrahydrouridine (50 μg/mL in 50% methanol/water). Sample vials were snap frozen in dry ice/acetone and stored at −80° C. until analyzed. Mucosal tissue samples were diluted 1:10 in water and 100 μL of the resulting sample was added to 400 μL of methanol.

[2] = biological target: T1, ENT1 (Homo sapiens, UniProt Q99808); test: Mass spectroscopy analysis of active transport into oocytes expressing ENT1; type: cell-based; settings: 0.1-3 mM, 10-30 minutes, LC/MS/MS, vs non-expressing oocytes
T1 construct: expressed in transfected cells; host or cells: Xenopus laevis oocytes injected with RNA
T1 sequence (Q99808 1-456): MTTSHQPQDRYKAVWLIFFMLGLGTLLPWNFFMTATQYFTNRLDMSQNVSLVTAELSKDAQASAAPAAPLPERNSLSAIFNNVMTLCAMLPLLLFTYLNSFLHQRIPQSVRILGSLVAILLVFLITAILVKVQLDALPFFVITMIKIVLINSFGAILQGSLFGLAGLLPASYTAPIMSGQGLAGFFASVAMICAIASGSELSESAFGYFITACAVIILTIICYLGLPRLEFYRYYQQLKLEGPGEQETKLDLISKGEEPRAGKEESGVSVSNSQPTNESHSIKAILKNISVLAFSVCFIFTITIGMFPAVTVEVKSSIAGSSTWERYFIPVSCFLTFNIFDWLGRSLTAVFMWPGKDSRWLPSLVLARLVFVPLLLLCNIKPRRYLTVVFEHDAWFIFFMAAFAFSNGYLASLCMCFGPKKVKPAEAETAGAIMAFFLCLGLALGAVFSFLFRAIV
Experimental: (§1) (b) Mass Spectroscopy Analysis of Active Transport of Compounds into Oocytes Expressing CNT1, CNT2, CNT3, ENT1 or ENT2
(§2) Transporters were expressed in oocytes as described above (a). Experiments were performed 3-5 days following injection. Oocytes were incubated with 0.1-3 mM of compounds for 10-30 minutes in frog ringers solution (90 mM NaCl, 2 mM KCl, 1 mM MgCl2, 2 mM CaCl2, 10 mM NaHEPES, pH 7.45, and 1% BSA). Experiments were performed at room temperature. For each compound, 4-7 oocytes were incubated for each transporter or non-expressing control. Following incubation, oocytes were rapidly washed 4 times in frog ringers solution, and placed one oocyte per well in a 96 well plate. Oocytes were homogenized in 0.15 mL solution containing 50% ethanol:water or 50% methanol:water. Precipitated protein or cellular matter was pelleted by spinning plates at 3000 RPM for 5 minutes. The solvent layer containing the extracted compounds was removed from wells.
(§3) The concentration of each compound in the oocyte extract was determined by analytical LC/MS/MS. Briefly, concentrations of test compound were determined using an API 2000 LC/MS/MS instrument equipped with an Agilent 1100 binary pump and a CTC HTS-PAL autosampler. The column was a Phenomenex hydro-RP 4.6×50 mm column. The mobile phase was water with 0.1% formic acid, 0.005% heptafluorobutyric acid (A) and acetonitrile with 0.1% formic acid, 0.005% heptafluorobutyric acid (B). The gradient condition was: 5% B for 0.5 min, then to 95% B in 2.5 min, then maintained at 95% B for 1 min. The mobile phase was returned to 5% B for 2 min. A TurboIonSpray source was used on the API 2000. The analysis was done in positive ion mode and an MRM transition of each analyte was first optimized using the standard solution. 10 μL of the samples were injected onto LC/MS/MS system for analysis. The peaks were integrated using Analyst 1.2 quantitation software. Specific uptake was determined by comparison of average uptake in oocytes expressing transporters with uptake in non-expressing oocytes.

[3] = biological target: T2, ENT2 (Homo sapiens, UniProt Q14542); test: Mass spectroscopy analysis of active transport into oocytes expressing ENT2; type: cell-based; settings: 0.1-3 mM, 10-30 minutes, LC/MS/MS, vs non-expressing oocytes
T2 construct: expressed in transfected cells; host or cells: Xenopus laevis oocytes injected with RNA
T2 sequence (Q14542 1-456): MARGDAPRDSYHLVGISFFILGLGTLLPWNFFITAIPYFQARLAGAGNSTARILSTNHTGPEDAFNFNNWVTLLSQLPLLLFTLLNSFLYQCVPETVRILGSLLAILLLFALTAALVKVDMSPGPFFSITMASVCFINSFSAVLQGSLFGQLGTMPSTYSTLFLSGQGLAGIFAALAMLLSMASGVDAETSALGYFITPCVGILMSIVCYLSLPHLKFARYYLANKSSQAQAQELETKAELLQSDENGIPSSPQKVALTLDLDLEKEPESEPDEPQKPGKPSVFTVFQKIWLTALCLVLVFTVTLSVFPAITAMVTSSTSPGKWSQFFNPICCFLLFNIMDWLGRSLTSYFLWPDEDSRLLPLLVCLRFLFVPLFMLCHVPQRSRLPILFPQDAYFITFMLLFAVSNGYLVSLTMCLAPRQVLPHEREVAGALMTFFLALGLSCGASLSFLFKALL
Experimental: as §1, §2, §3

[4] = biological target: T3, CNT3 (Homo sapiens, UniProt Q9HAS3); test: Mass spectroscopy analysis of active transport into oocytes expressing CNT3; type: cell-based; settings: 0.1-3 mM, 10-30 minutes, LC/MS/MS, vs non-expressing oocytes
T3 construct: expressed in transfected cells; host or cells: Xenopus laevis oocytes injected with in vitro transcribed RNA
T3 sequence (Q9HAS3 1-691): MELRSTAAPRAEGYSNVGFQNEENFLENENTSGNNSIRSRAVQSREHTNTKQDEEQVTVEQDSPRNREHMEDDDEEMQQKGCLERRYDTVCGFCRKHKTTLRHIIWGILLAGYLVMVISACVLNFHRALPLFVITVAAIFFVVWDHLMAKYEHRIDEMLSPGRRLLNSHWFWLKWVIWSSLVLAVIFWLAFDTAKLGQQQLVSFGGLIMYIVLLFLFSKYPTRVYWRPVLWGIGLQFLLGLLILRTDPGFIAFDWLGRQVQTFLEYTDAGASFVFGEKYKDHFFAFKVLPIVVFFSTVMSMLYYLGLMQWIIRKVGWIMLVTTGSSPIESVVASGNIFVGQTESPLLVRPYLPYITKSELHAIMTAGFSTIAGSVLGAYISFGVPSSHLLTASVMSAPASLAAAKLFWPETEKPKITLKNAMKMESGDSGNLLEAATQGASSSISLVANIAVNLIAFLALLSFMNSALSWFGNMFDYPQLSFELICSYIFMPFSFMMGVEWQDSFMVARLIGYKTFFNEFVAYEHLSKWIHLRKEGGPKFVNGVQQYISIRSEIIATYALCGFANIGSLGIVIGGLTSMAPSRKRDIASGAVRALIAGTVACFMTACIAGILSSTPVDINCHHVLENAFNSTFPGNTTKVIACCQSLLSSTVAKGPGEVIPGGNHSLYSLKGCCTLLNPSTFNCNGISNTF
From the text: (§4) Human CNT1, CNT2 and CNT3 transporter cDNAs were subcloned into a modified pGEM plasmid that contains 5′ and 3′ untranslated sequences from the Xenopus β-actin gene. These sequences increase RNA stability and protein expression. Plasmid cDNA was linear zed and used as template for in vitro transcription (Epicentre Technologies transcription kit, 4:1 methylated:non-methylated GTP).
as §1, §2, §3

[5] = biological target: T4, CNT1 (Homo sapiens, UniProt O00337); test: Mass spectroscopy analysis of active transport into oocytes expressing CNT1; type: cell-based; settings: 0.1-3 mM, 10-30 minutes, LC/MS/MS, vs non-expressing oocytes
T4 construct: expressed in transfected cells; host or cells: Xenopus laevis oocytes injected with in vitro transcribed RNA
T4 sequence (O00337 1-649): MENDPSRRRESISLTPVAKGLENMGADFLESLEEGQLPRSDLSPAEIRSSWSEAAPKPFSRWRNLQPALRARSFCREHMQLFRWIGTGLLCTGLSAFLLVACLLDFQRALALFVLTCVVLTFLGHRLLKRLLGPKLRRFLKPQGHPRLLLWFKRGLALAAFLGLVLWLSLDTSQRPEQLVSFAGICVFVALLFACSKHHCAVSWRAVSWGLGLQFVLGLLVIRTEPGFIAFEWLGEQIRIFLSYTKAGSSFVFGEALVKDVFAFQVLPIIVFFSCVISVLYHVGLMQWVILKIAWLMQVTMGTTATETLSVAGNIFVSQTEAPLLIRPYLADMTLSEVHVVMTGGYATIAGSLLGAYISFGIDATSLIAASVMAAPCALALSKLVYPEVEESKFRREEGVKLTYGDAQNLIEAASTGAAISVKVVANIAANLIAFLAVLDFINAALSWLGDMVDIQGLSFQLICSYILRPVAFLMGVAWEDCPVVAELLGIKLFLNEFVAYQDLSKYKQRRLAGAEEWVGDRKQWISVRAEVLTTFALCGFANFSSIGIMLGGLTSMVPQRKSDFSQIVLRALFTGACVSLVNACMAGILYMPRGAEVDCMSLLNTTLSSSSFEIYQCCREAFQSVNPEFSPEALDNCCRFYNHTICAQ
From the text: as §4, §1, §2
The concentration of each compound in the oocyte extract was determined by analytical LC/MS/MS. Briefly, concentrations of test compound were determined using an API 2000 LC/MS/MS instrument equipped with an Agilent 1100 binary pump and a CTC HTS-PAL autosampler. The column was a Phenomenex hydro-RP 4.6×50 mm column. The mobile phase was water with 0.1% formic acid, 0.005% heptafluorobutyric acid (A) and acetonitrile with 0.1% formic acid, 0.005% heptafluorobutyric acid (B). […] The peaks were integrated using Analyst 1.2 quantitation software. Specific uptake was determined by comparison of average uptake in oocytes expressing transporters with uptake in non-expressing oocytes.

SMILES	Oral bioavailability as gemcitabine (in words) [1]	Specific uptake into oocytes expressing ENT1 [2]	Specific uptake into oocytes expressing ENT2 [3]	Specific uptake into oocytes expressing CNT3 [4]	Specific uptake into oocytes expressing CNT1 [5]
CC(C)[C@H](N)C(=O)O[C@@H]1[C@@H](CO)O[C@@H](n2ccc(N)nc2=O)C1(F)F [Compound 3, β-1-(4-Amino-2-oxo-1H-pyrimidin-1-yl)-3-O-(L-valinyl)-2-deoxy-2,2-difluororibose]	substantial oral bioavailability	–	–	–	–
CCOC(=O)Nc1ccn([C@@H]2O[C@H](CO)[C@@H](O)C2(F)F)c(=O)n1 [Compound 11, β-1-(4-Ethoxycarbonylamino-2-oxo-1H-pyrimidin-1-yl)-2-deoxy-2,2-difluororibose]	substantial oral bioavailability	Significant uptake over background	Significant uptake over background	Significant uptake over background	Significant uptake over background
O=C(Nc1ccn([C@@H]2O[C@H](CO)[C@@H](O)C2(F)F)c(=O)n1)OCC(F)(F)F [Compound 36, β-1-(4-(1,1,1-Trifluoroethyl)oxycarbonylamino-2-oxo-1H-pyrimidin-1-yl)-2-deoxy-2,2-difluororibose]	substantial oral bioavailability	specific uptake was observed	specific uptake was observed	specific uptake was observed	–
CC(C)(C)C(=O)OC(OC(=O)NCCOC(=O)Nc1ccn([C@@H]2O[C@H](CO)[C@@H](O)C2(F)F)c(=O)n1)C(C)(C)C (stereo partly shown) [Compound 63]	substantial oral bioavailability	–	–	–	–

Second part, the molecule after the results:

Oral bioavailability as gemcitabine (in words) [1]	Specific uptake into oocytes expressing ENT1 [2]	Specific uptake into oocytes expressing ENT2 [3]	Specific uptake into oocytes expressing CNT3 [4]	Specific uptake into oocytes expressing CNT1 [5]	SMILES
substantial oral bioavailability	specific uptake was observed	specific uptake was observed	specific uptake was observed	–	CCCCCOC(=O)Nc1ccn([C@@H]2O[C@H](CO)[C@@H](O)C2(F)F)c(=O)n1 [Compound 26, β-1-(4-Pentyloxycarbonylamino-2-oxo-1H-pyrimidin-1-yl)-2-deoxy-2,2-difluororibose]
substantial oral bioavailability	Significant uptake over background	Significant uptake over background	Significant uptake over background	Significant uptake over background	C=C(C)OC(=O)Nc1ccn([C@@H]2O[C@H](CO)[C@@H](O)C2(F)F)c(=O)n1 [Compound 38, β-1-(4-(Propen-2-yl)oxycarbonylamino-2-oxo-1H-pyrimidin-1-yl)-2-deoxy-2,2-difluororibose]
substantial oral bioavailability	Significant uptake over background	Significant uptake over background	Significant uptake over background	Significant uptake over background	CC(C)(C)C(=O)OCCCC(=O)Nc1ccn([C@@H]2O[C@H](CO)[C@@H](O)C2(F)F)c(=O)n1 [Compound 62, β-1-[4-(4-Pivaloyloxybutyroylamino)-2-oxo-1H-pyrimidin-1-yl]-2-deoxy-2,2-difluororibose]
